Patent US11826333B2, “Bactericidal debridement compositions for surgical site infections and chronic wound healing” (DePuy Synthes Products, Inc., priority 2020, dated 2023)
Values after ≈ are worked out from the molar mass of the structure shown.

Experiments:
[1] = test system: MRSA; conditions: literature, Jennings et al. 2012; cited from earlier work
[2] = test system: P. aeruginosa, E. coli, K pneumoniae, Proteus mirabilis, Streptococcus pyogenes, B. subtilis, S. aureus, and the yeast C. albicans; conditions: literature, Rabin et al. 2015; many species of bacteria and across kingdom; cited from earlier work
[3] = test system: planktonic S. aureus; experiment: CDA effect on planktonic bacteria (visual MIC test and follow-up plating); type: cell-based
From the text: As an additional test, several different CDA concentrations (800 ppm, 400 ppm, 200 ppm, 100 ppm, 50 ppm, 25 ppm, 12.5 ppm, and 6.25 ppm) were placed in vials including planktonic S. aureus. The vials can be seen in FIG. 3A. Two controls are on the right and unlabeled (bacteria/no fatty acid and no fatty acid/no bacteria, respectively). […] This test was qualitative and was based on whether there was observable bacteria in the test vials. In FIG. 3A, it can be seen that only the test vial containing 800 ppm CDA contains clear fluid, while the other tubes are all cloudy indicating active presence of bacteria.
Thus, even at an MIC of 800 ppm, CDA was not shown to be bactericidal but rather bacteriostatic with respect to planktonic bacteria.

[4] = test system: mature biofilms of S. aureus (ATCC 25923); experiment: CDA dispersant effect on mature biofilms; type: cell-based; conditions: CDA ~0.05 ppm, 310 nM
Procedure: (§1) In the following examples, unless otherwise noted, testing was conducted on mature biofilms of S. aureus (ATCC 25923) that were grown for 48 hours. An exemplary preparation of the biofilm is as follows: • Prepare an overnight bacterial inoculum of S. aureus at a concentration of 10^9 CFU/mL in 20 mL in commercial Tryptic Soy Broth (TSB) by incubating at 37° C. shaker at 250 rpm; • Take an OD600 reading of a diluted stock of overnight culture to determine stock concentration with the absorbance method; • Adjust the concentration of bacteria to 10^5 CFU/mL using 0.3% (w/v) TSB forcibly aspirating up and down to break up clumps of colonies with a serological pipette from the stock concentration; • Plate the following dilutions in triplicates on TSA-L plates to determine the initial stock concentration of cells: 10^2 CFU/mL; • Add 7 mL of inoculum into each 15 ml tube containing K-wire using a serological pipette, making sure to again forcibly aspirate up and down prior to addition; • Place the tubes on the revolver at 30° C.; • After 8 hours, unscrew the caps and transfer the caps with sutures to a new tube with 7 mL of 0.3% TSB and incubate in the shaker-incubator for an additional 44 hours to grow the biofilm at 40 RPM growing; • During this time, change the media 2 times per day by unscrewing the cap and transferring to a new tube with 7 mL TSB.

[5] = test system: S. aureus (ATC 25923) biofilm grown for 48 hours on K-wires; experiment: 1 hour CDA/cefazolin exposure of debrided or full biofilm on K-wires (Example 3); type: cell-based; conditions: debrided biofilm; for Avg. Log CFU, K-Wire Testing / Avg. Log CFU, Well Testing: 21° C.; for Reduction (log CFU), K-Wire Testing / Reduction (log CFU), Well Testing: vs debrided biofilm control
Procedure: The goal of this study was to determine whether the combination of CDA and Cefazolin can act quickly on a debrided contaminated wound site with an adjuvant killing effect of CDA and a therapeutic drug concentration. The biofilm was grown at 30° C. and the same 0.3% (w/v) media used in previous studies was used in this study. The biofilm was grown for 48 hours, then underwent a mechanical “debridement” process. This debridement was done to simulate the debridement of an infected wound site. After the physical removal of visual biofilm, the K-wires were exposed to 400 ppm CDA, 10 ppm cefazolin, or a combination of both, for one hour (in contrast to the previous studies where exposure was for 24 hrs). Separately, a test was conducted on an untreated biofilm (i.e., not debrided) using a higher concentration of CDA, approximately 800 ppm. This concentration of CDA was determined to be the MIC value for ATC 25923 planktonic cells as noted above in the previous example.
The contents of the wells and bacteria on the K-wires were diluted and plated to determine CFU/mL. Briefly, the K-wires were secured to tube caps and placed in tubes incubated with an initial inoculum concentration (10^5 CFU/mL) and grown for 24-48 hours. Media was changed roughly every 8 hours. After growth, the biofilms were exposed to a combination of CDA and cefazolin for 60 minutes.
After exposure time was completed, both the well samples and the debrided K-wires were treated, and the remaining bacteria cells were plated and counted. For the media in the wells, samples were centrifuged for 10 minutes at 3000 rpm and the supernatant was removed. The cells were resuspended in 10 mL 1×PBS buffer. This washing step was repeated for a second time and the cells resuspended again in a final volume of 1.5 mL neutralizing buffer, diluted and plated on Tryptic Soy Agar with Lectin (TSA-L) agar plates. For the K-wires, the caps securing the K-wires in the tubes were removed and transferred to tubes with 10 mL 1×PBS and the tubes were inverted. The cap with the K-wires were transferred again to another tube with PBS and the step was repeated. After washing the K-wires 2×, they were transferred to tubes with neutralizing buffer and vortexed followed by ultra-sonication for 10 minutes. The cells were then diluted and plated on TAS-L agar plates.
Prepare an overnight bacterial inoculum of S. aureus at a concentration of 10^9 CFU/mL in 20 mL in commercial TSB by incubating at 37° C. shaker at 250 rpm.
Adjust the concentration of bacteria to 10^5 CFU/mL using 0.3% (w/v) TSB making sure to forcibly aspirate up and down to break up clumps of colonies with a serological pipette from the stock concentration.
Add 7 mL of inoculum into each 15 ml tube containing K-wire using a serological pipette, making sure to again forcibly aspirate up and down prior to addition.
After 8 hours, unscrew the caps and transfer the caps with sutures to a new tube with 7 mL of 0.3% TSB and incubate in the shaker-incubator for an additional 44 hours to grow the biofilm at 40 RPM growing.
During this time, change the media 2× per day by unscrewing the cap and transferring to a new tube with 7 mL TSB. After 48 hours of growth, proceed with debridement of the biofilm and exposure.
Transfer the K-wires in new tubes containing 10 mL of 1×PBS, invert it two times and repeat the same step with one more PBS wash by inverting 2 times for a total of 2 washes.
Transfer caps with debrided biofilm to a new tube containing 10 mL of 0.1% TSB with DMSO only.
Transfer caps with debrided biofilm to a new tube containing 10 mL of 0.1% TSB+400 ppm concentration of CDA+5% DMSO.
Transfer caps with debrided biofilm to a new tube containing 10 mL of 0.1% TSB+10 ppm concentration of cefazolin.
Transfer caps with debrided biofilm to a new tube containing 10 mL of 0.1% TSB+10 ppm concentration of cefazolin+400 ppm CDA+5% DMSO. […]

[6] = test system: biofilms; conditions: literature, Davies & Marques 2009; cited from earlier work
[7] = test system: S. aureus (ATCC 25923) biofilms grown for 48 hrs; experiment: CDA dose response on mature biofilms (Example 1); type: cell-based; conditions: CDA at 200 ppm or greater in 5% DMSO; 24 hours exposure; 48 h biofilm
Procedure: as §1, with “TSB. […]” for “TSB.”

[8] = test system: mature biofilms of S. aureus (ATCC 25923) grown for 48 hours on K-wires; experiment: CDA + antibiotics on K-wires having mature biofilms (Example 2); type: cell-based; conditions: 400 ppm CDA adjuvant in combination with the named antibiotic; 48 h biofilm
Procedure: as §1
New K-wires were roughened with #600 sandpaper (˜10× along the length) followed by rinsing with deionized water. The rinsed K-wires were then completely immersed in a 10% citric acid (w/v) bath at ˜49° C. for 20 minutes to passivate the surface of the stainless steel to prevent subsequent corrosion. After removal from the bath, the K-wires were then rinsed with deionized water. The K-wires were then washed and sterilized by autoclaving.
K-wires were secured to tube caps and placed in tubes incubated with an initial inoculum concentration (10^5 CFU/mL) and grown for 24-48 hours. Media was changed roughly every 8 hours. After growth, the inoculated K-wires were ready for testing.
After exposure time is completed, both the well samples and the debrided K-wires are treated, and remaining bacteria cells are plated and counted. For the media in the wells, samples are centrifuged for 10 minutes at 3000 rpm and the supernatant is removed. The cells are resuspended in 10 mL 1×PBS buffer. This washing step is repeated for a 2nd time and the cells resuspended again in a final volume of 1.5 mL neutralizing buffer, diluted and plated on Tryptic Soy Agar with Lectin (TSA-L) agar plates. For the K-wires, the caps securing the K-wires in the tubes are removed and transferred to tubes with 10 mL 1×PBS and the tubes are inverted. The caps with the K-wires are transferred again to another tube with PBS and the step repeated. After washing the K-wires 2 times, they are transferred to tubes with neutralizing buffer and vortexed followed by ultra-sonication for 10 minutes. The cells are then diluted and plated on TSA-L agar plates.
Following growth, biofilms were washed and treated with the fatty acid and/or antimicrobials to determine dose-response and adjuvant effects. After this time, the wells of the samples were diluted and plated to determine dispersion levels compared to controls. The K-wires were washed, sonicated to remove any residual cells, and the samples were plated to determine CFU/mL.

[9] = test system: Staphylococcus aureus; conditions: literature, Stenz et al.; by inhibiting bacterial adhesion; cited from earlier work
[10] = test system: Xanthomonas campestris; conditions: literature, Dow et al. 2003; cited from earlier work
[11] = test system: mature biofilms of S. aureus (ATCC 25923); experiment: Systemic gentamicin testing on mature biofilms; type: cell-based; conditions: approximately 10 ppm (10 mcg/ml) gentamicin; data not shown
Procedure: as §1, with “TSB. […]” for “TSB.”

## CCCCCCC/C=C\C(=O)O [CDA, cis-2-decenoic acid]
[1]
  concentration that inhibited biofilm formation: 125 ppm
  concentration that inhibited the growth of MRSA: ≥ 500 ppm
[2]
  effect on established biofilms: disperse established biofilms
[3]; 400 ppm CDA, planktonic S. aureus
  growth in the tube: visible growth
[3]; 800 ppm CDA, 10 μL plated on TSA-L agar after 24 hours incubation
  bacteriostatic or bactericidal: bacteriostatic, not bactericidal
[3]; Staphylococcus aureus, planktonic cells, qualitative, clear vs cloudy vials, read-out: minimum inhibitory concentration (MIC)
  MIC: 800 µg/mL (≈ 4.7 mM)
[4]
  dispersion of biofilm: no observed dispersion
[5]; 400 ppm CDA + 5% DMSO
  Avg. Log CFU, K-Wire Testing: 7.8 Log CFU
  Avg. Log CFU, Well Testing: 5.6 Log CFU
  Reduction (log CFU), K-Wire Testing: 1.6
  Reduction (log CFU), Well Testing: 0.6
[6]
  lowest concentration able to disperse biofilms: about 2.5 nM
[7]
  log reduction in CFU: greater than 4 log

## Cc1nnc(SCC2=C(C(=O)O)N3C(=O)[C@@H](NC(=O)Cn4cnnn4)[C@H]3SC2)s1 [Cef, cefazolin]
[5]; 10 ppm cefazolin
  Avg. Log CFU, K-Wire Testing: 8.5 Log CFU
  Avg. Log CFU, Well Testing: 5.4 Log CFU
  Reduction (log CFU), K-Wire Testing: 0.9
  Reduction (log CFU), Well Testing: 0.8
[8]
  log reduction of bacteria in the wells: 7.8 log
  log reduction of bacteria on the medical device (K-wires): 5.9 log

## CCCCCCCC/C=C\CCCCCCCC(=O)O [Oleic acid, cis-9-octadecanoic acid]
[9]
  effect on biofilm formation: repress biofilm formation

## CC(C)CCCCCCC/C=C\C(=O)O [cis-11-methyl-2-dodecenoic acid]
[10]
  effect on cell flocs: disaggregate cell flocs

## CN[C@H](CC(C)C)C(=O)N[C@H]1C(=O)N[C@@H](CC(N)=O)C(=O)N[C@H]2C(=O)N[C@H]3C(=O)N[C@H](C(=O)N[C@H](C(=O)O)c4cc(O)cc(O)c4-c4cc3ccc4O)[C@H](O)c3ccc(c(Cl)c3)Oc3cc2cc(c3O[C@@H]2O[C@H](CO)[C@@H](O)[C@H](O)[C@H]2O[C@H]2C[C@](C)(N)[C@H](O)[C@H](C)O2)Oc2ccc(cc2Cl)[C@H]1O [vancomycin]
[8]
  log reduction of bacteria in the wells: 5.3 log
  log reduction of bacteria on the medical device (K-wires): 4.7 log

## gentamicin
[11]
  response of mature biofilms to gentamicin doses: resistant
[8]
  log reduction of bacteria in the wells: 6.3 log
  log reduction of bacteria on the medical device (K-wires): 4.9 log
